Results reported in patent publication US7022484B2, “Methods for treating neuropathological states and neurogenic inflammatory states and methods for identifying compounds useful therein” (Board of Regents, The University of Texas System, priority 2000, dated 2006).
“Also recorded” adds a separate entry of the source.

Tested on: NMDA receptor subunit NR1
Experiment: Immunocytochemical localization of NMDA receptor subunit NR1 in spinal cord of arthritic rats
Type: in vivo, rat
Details: Genistein 1 mM spinal pre-treatment
Source text: Cycloheximide (100 milligrams per kilogram (mg/kg) intraperitoneal (i.p.) was used in some studies to determine if the alterations observed for the NMDA NR1 receptor subunit could be attributed to newly synthesized NR1 protein.
Twenty-four rats in 3 separate groups were used for immunocytochemical studies. One group of rat (n=8) was a naive control. The other 2 groups (n=16) of rats received surgical placement of the microdialysis fiber placement. On the day after microdialysis fiber placement, the animals were treated spinally with either Genistein (1 mM) or vehicle (50% DMSO in aCSF) for 1.5 hours (n=8 for each group). Then the left knee joint of all sixteen rats was injected with 0.1 ml of kaolin and carrageenan.
Animals were anesthetized and transcardially perfused with a brief warm saline rinse followed by fixative solution (4% paraformaldehyde in 0.1 M phosphate buffer, pH 7.4). The tissues were soaked overnight in 30% buffered sucrose and cut at 30 microns on a sliding microtome. For light microscopy, the tissues from animals (n=8) were permeabilized with a 50% buffered ethanol treatment. Tissue sections were then stained immunocytochemically for glutamate receptor subunit NR1 and phospho-NR1. Primary antibodies to be used for staining include anti-NMDA NR1 NMDA receptor (0.5–1 milligrams per milliliter (mg/ml)) purchased from Chemlcon Inc. (Pittsburgh, Pa.). Other neurotransmitter and receptor primary antibodies against NMDA NR2C, mGluR1, and mGluR5 were used as stain specificity controls. The primary antibodies were diluted in phosphate buffered saline (PBS, pH 7.6) with 0.1% BSA for overnight incubation on the spinal cord tissues. After washing in PBS, the tissue sections were incubated in the appropriate secondary antibody, either anti-mouse or anti-rabbit IgG (1:100, 30 minutes) and in avidin-biotin complex (ABC, 1:100, Vector Laboratories, Burlingame, Calif.). Sections were reacted with diaminobenzidine (DAB) solution (1.5 mg/ml) as the chromogen and peroxide (0.5 mg/ml) to produce a dense reaction product. To further intensify the reaction product particularly for visualization of nuclear rings, some tissues were reacted with colloidal gold conjugated IgG and reacted with a silver chloride solution to produce an intense black reaction product (Takizawa et al., J. Histochemistry & Cytochemistry, 42, 1615–1623 (1994)).
Immunocytochemical controls included sections processed in the absence of the primary or secondary antibody or ABC reagents. The specificity of the transmitter antibodies was confirmed by appearance of a single band by Western blot. In addition to use of the C-terminus NR1 antibody from ChemIcon, an antibody directed to the N-terminus of the NR1 protein was used as control (1 mg/ml; BD PharMingen, San Diego, Calif.). […]

## O=c1c(-c2ccc(O)cc2)coc2cc(O)cc(O)c12 [Genistein, 5,7-Dihydroxy-3-(4-hydroxyphenyl)-4H-1-benzopyran-4-one; 4′,5,7-trihydroxy-isoflavone]
4 hours, cycloheximide 100 mg/kg i.p.
  staining for NR1 in spinal cord: about half that observed in arthritic rats and was not significantly increased above levels seen in normal rats; also recorded: greatly reduced expression increases for NR1 that were not significantly different from baseline
  nuclear localization of NR1: greatly reduced; also recorded: inhibited the shift in the pattern of NMDA NR1 protein staining
